Laboratory results from patent publication US6914045B2, “Glycopeptide antibiotics” (Wyeth Holdings Corporation, priority 2001, dated 2005).
≈ marks a conversion by molar mass, not a printed value.

Tests used:
Experiment in all cases: in vitro antibacterial evaluation, MIC by broth dilution
Type in all cases: cell-based
Conditions in all cases: broth dilution, 18 hours at 35° C.
[1] = tested on: Staphylococcus sp.
Procedure: (§1) Methods for in vitro Antibacterial Evaluation (Table 1)
(§2) The minimum inhibitory concentration (MIC), the lowest concentration of the antibiotic which inhibits growth of the test organism, is determined by the broth dilution method using Muller-Hinton II […] (Baltimore Biological Laboratories) following the recommendations of the National Committee for Clinical Laboratory Standards [Methods for dilution antimicrobial susceptibility tests for bacteria that grow aerobically, approved standard M7-A2, National Committee for Clinical Laboratory Standards, Villanova, Pa.].
(§3) An inoculum level of 5×10^5 CFU/mL, and a range of antibiotic concentrations (64-0.06 μg/mL) is used. […] The test organisms include a spectrum of Gram-positive bacteria comprised of Staphylococcus sp., Streptococcus sp. and Enterococcus sp. These organisms include recent clinical isolates that are resistant to methicillin, penicillin and/or vancomycin.

[2] = tested on: Streptococcus sp.
Procedure: as §1, §2, §3

[3] = tested on: Enterococcus sp.
Procedure: as §1, §2, §3

[4] = tested on: Escherichia coli
In short: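 Broth dilution MIC per NCCLS M7-A2 in Mueller-Hinton II medium, inoculum 5×10^5 CFU/mL, antibiotic range 64-0.06 μg/mL. MIC taken as lowest concentration inhibiting growth.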

CC(c1ccccc1)C1NC(=O)CNC(=O)C(CO)NC(=O)C(C(O)C2CNC(=N)N2C2OC(CO)C(O)C(O)C2O)NC(=O)C(C(O)C2CNC(=N)N2)NC(=O)C(Cc2ccc3oc(-c4ccc(Br)cc4)nc3c2)NC1=O (stereo not drawn) [Example 27, Cyclo[3-[2-(4-bromophenyl)-1,3-benzoxazol-5-yl]alanyl-3-(2-iminoimidazolidin-4-yl)seryl-3-(3-hexopyranosyl-2-iminoimidazolidin-4-yl)serylserylglycyl-β-methylphenylalanyl]]
MIC Staphylococcus aureus (ATCC 29213) ([1]; strain ATCC 29213): 8 µg/mL (≈ 6.95 µM)
MIC Staphylococcus aureus (GC 1131) ([1]; strain GC 1131): 16 µg/mL (≈ 13.9 µM)
MIC Staphylococcus aureus (GC 3051) ([1]; strain GC 3051): 16 µg/mL (≈ 13.9 µM)
MIC Staphylococcus aureus (GC 3053) ([1]; strain GC 3053): 8 µg/mL (≈ 6.95 µM)
MIC Staphylococcus aureus (GC 4541) ([1]; strain GC 4541): 16 µg/mL (≈ 13.9 µM)
MIC Staphylococcus aureus (GC 4542) ([1]; strain GC 4542): 8 µg/mL (≈ 6.95 µM)
MIC Staphylococcus aureus-SMITH (GC 4543) ([1]; strain GC 4543): 8 µg/mL (≈ 6.95 µM)
MIC Staphylococcus aureus (GC 4544) ([1]; strain GC 4544): 8 µg/mL (≈ 6.95 µM)
MIC Staphylococcus aureus (GC 4545) ([1]; strain GC 4545): 8 µg/mL (≈ 6.95 µM)
MIC Staphylococcus haemolyticus (GC 4546) ([1]; strain GC 4546): 4 µg/mL (≈ 3.48 µM)
MIC Coagulase Negative Staphylococcus (GC 4547) ([1]; strain GC 4547): 8 µg/mL (≈ 6.95 µM)
MIC Coagulase Negative Staphylococcus (GC 4548) ([1]; strain GC 4548): 8 µg/mL (≈ 6.95 µM)
MIC Coagulase Negative Staphylococcus (GC 4549) ([1]; strain GC 4549): 8 µg/mL (≈ 6.95 µM)
MIC Coagulase Negative Staphylococcus (GC 4551) ([1]; strain GC 4551): 8 µg/mL (≈ 6.95 µM)
MIC Coagulase Negative Staphylococcus (GC 6257) ([1]; strain GC 6257): 4 µg/mL (≈ 3.48 µM)
MIC Streptococcus pneumoniae (ATCC 6301) ([2]; strain ATCC 6301): 16 µg/mL (≈ 13.9 µM)
MIC Streptococcus pneumoniae (GC 1894) ([2]; strain GC 1894): 32 µg/mL (≈ 27.8 µM)
MIC Streptococcus pyogenes (GC 4563) ([2]; strain GC 4563): 8 µg/mL (≈ 6.95 µM)
MIC Streptococcus agalactiae (GC 4564) ([2]; strain GC 4564): 32 µg/mL (≈ 27.8 µM)
MIC Streptococcus pneumoniae (GC 4565) ([2]; strain GC 4565): 16 µg/mL (≈ 13.9 µM)
MIC Enterococcus faecalis (ATCC 29212) ([3]; strain ATCC 29212): 32 µg/mL (≈ 27.8 µM)
MIC Enterococcus faecalis (GC 2242) ([3]; strain GC 2242): 32 µg/mL (≈ 27.8 µM)
MIC Enterococcus faecium (GC 2243) ([3]; strain GC 2243): 32 µg/mL (≈ 27.8 µM)
MIC Enterococcus faecalis (GC 2691) ([3]; strain GC 2691): 32 µg/mL (≈ 27.8 µM)
MIC Enterococcus faecalis (GC 3059) ([3]; strain GC 3059): 32 µg/mL (≈ 27.8 µM)
MIC Enterococcus faecalis (GC 4552) ([3]; strain GC 4552): 64 µg/mL (≈ 55.6 µM)
MIC Enterococcus faecalis (GC 4553) ([3]; strain GC 4553): 16 µg/mL (≈ 13.9 µM)
MIC Enterococcus faecalis (GC 4554) ([3]; strain GC 4554): 32 µg/mL (≈ 27.8 µM)
MIC Enterococcus faecium (GC 4556) ([3]; strain GC 4556): 64 µg/mL (≈ 55.6 µM)
MIC Enterococcus faecium (GC 4557) ([3]; strain GC 4557): 8 µg/mL (≈ 6.95 µM)
MIC Enterococcus avium (GC 4558) ([3]; strain GC 4558): 16 µg/mL (≈ 13.9 µM)
MIC Enterococcus faecalis (GC 6189) ([3]; strain GC 6189): 32 µg/mL (≈ 27.8 µM)
MIC Escherichia coli (ATCC 25922) ([4]; strain ATCC 25922): 32 µg/mL (≈ 27.8 µM)
MIC Escherichia coli (GC 4559) ([4]; strain GC 4559): 32 µg/mL (≈ 27.8 µM)
MIC Escherichia coli (GC 4560) ([4]; strain GC 4560): 8 µg/mL (≈ 6.95 µM)
